According to PubChem BioAssay (NCI):
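Growth conditions: 96-well plates. Treatment: test compound, 48 hours, 5 concentrations. Analysis: linear interpolation between bracketing concentrations; unreached endpoints set to highest concentration. GI50 is the concentration that inhibits growth by half. The concentration for full growth arrest is given as TGI.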

Legend:
Assay in all cases: DTP human tumour cell line panel, 48 h
A549 NSCLC = tested on: A549 NSCLC
HL-60(TB) leukemia = tested on: HL-60(TB) leukemia
HS 578T breast = tested on: HS 578T breast
MOLT-4 leukemia = tested on: MOLT-4 leukemia
NCI/ADR-RES ovarian = tested on: NCI/ADR-RES ovarian
OVCAR-3 ovarian = tested on: OVCAR-3 ovarian
RXF 393 renal = tested on: RXF 393 renal
SK-MEL-5 melanoma = tested on: SK-MEL-5 melanoma
DLD-1 colon = tested on: DLD-1 colon
LXFL 529 NSCLC = tested on: LXFL 529 NSCLC

Cc1cccc(NC(=O)/C=C/c2ccc([N+](=O)[O-])cc2)c1
TGI (A549 NSCLC): > 56.2 µM
TGI (HL-60(TB) leukemia): > 24.8 µM
TGI (HS 578T breast): > 87 µM
TGI (MOLT-4 leukemia): > 65.4 µM
TGI (NCI/ADR-RES ovarian): > 59.3 µM
TGI (OVCAR-3 ovarian): 27.6 µM
TGI (RXF 393 renal): > 52.7 µM
TGI (SK-MEL-5 melanoma): > 51 µM

Cc1cnc(Nc2ccc(N3CCN(C)CC3)cc2)nc1Nc1ccc(Cl)c(NS(=O)(=O)C(C)(C)C)c1
GI50 (A549 NSCLC): 0.339 µM
TGI (A549 NSCLC): 1.81 µM
GI50 (HL-60(TB) leukemia): 0.103 µM
TGI (HL-60(TB) leukemia): 1.02 µM
GI50 (HS 578T breast): 0.128 µM
TGI (HS 578T breast): 1.4 µM
GI50 (MOLT-4 leukemia): 0.419 µM
TGI (MOLT-4 leukemia): 11.6 µM
GI50 (NCI/ADR-RES ovarian): 0.511 µM
TGI (NCI/ADR-RES ovarian): 6.09 µM
GI50 (OVCAR-3 ovarian): 0.324 µM
TGI (OVCAR-3 ovarian): 2.93 µM
GI50 (RXF 393 renal): 0.136 µM
TGI (RXF 393 renal): 0.959 µM
GI50 (SK-MEL-5 melanoma): 0.312 µM
TGI (SK-MEL-5 melanoma): 1.51 µM

NNC(=O)c1ccc(OCc2nc3ccccc3[nH]2)cc1
TGI (A549 NSCLC): > 100 µM
TGI (HL-60(TB) leukemia): > 100 µM
TGI (HS 578T breast): > 100 µM
TGI (MOLT-4 leukemia): > 100 µM
TGI (NCI/ADR-RES ovarian): > 100 µM
TGI (OVCAR-3 ovarian): > 100 µM
TGI (RXF 393 renal): > 100 µM
TGI (SK-MEL-5 melanoma): > 100 µM

Cn1c(=O)c2[nH]cnc2n(CC(N)=O)c1=O
TGI (A549 NSCLC): > 100 µM
TGI (DLD-1 colon): > 100 µM
TGI (LXFL 529 NSCLC): > 100 µM
TGI (MOLT-4 leukemia): > 100 µM
TGI (OVCAR-3 ovarian): > 100 µM
TGI (SK-MEL-5 melanoma): > 100 µM

CC(=O)NNc1nc(C)c(C(=O)NNC(=O)C(=O)Nc2ccc([N+](=O)[O-])cc2C#N)s1
TGI (A549 NSCLC): > 100 µM
TGI (HL-60(TB) leukemia): > 100 µM
TGI (LXFL 529 NSCLC): > 100 µM
TGI (MOLT-4 leukemia): > 100 µM
TGI (OVCAR-3 ovarian): > 100 µM
TGI (SK-MEL-5 melanoma): > 100 µM

COc1cc(C2C3=C(COC3=O)N(CCO)c3cc4c(cc32)OCO4)cc(OC)c1O (centres undefined)
GI50 (A549 NSCLC): 5.62 µM
TGI (A549 NSCLC): > 50 µM
GI50 (HL-60(TB) leukemia): 1.32 µM
TGI (HL-60(TB) leukemia): 3.26 µM
GI50 (HS 578T breast): 1.3 µM
TGI (HS 578T breast): 4.59 µM
GI50 (MOLT-4 leukemia): 2.15 µM
TGI (MOLT-4 leukemia): > 24.9 µM
GI50 (NCI/ADR-RES ovarian): 11.3 µM
TGI (NCI/ADR-RES ovarian): > 50 µM
GI50 (OVCAR-3 ovarian): 0.982 µM
TGI (OVCAR-3 ovarian): 2.22 µM
GI50 (RXF 393 renal): 0.576 µM
TGI (RXF 393 renal): 2.11 µM
GI50 (SK-MEL-5 melanoma): 0.832 µM
TGI (SK-MEL-5 melanoma): 3.42 µM

COC1C2c3cc4c(cc3CC(C#N)(c3ccccc32)N1C(=O)c1ccccc1)OCO4 (centres undefined)
TGI (DLD-1 colon): > 100 µM
TGI (HL-60(TB) leukemia): > 100 µM
TGI (LXFL 529 NSCLC): > 100 µM
TGI (MOLT-4 leukemia): > 100 µM
TGI (OVCAR-3 ovarian): > 100 µM
TGI (RXF 393 renal): > 100 µM
TGI (SK-MEL-5 melanoma): > 100 µM

COc1ccc(C(CC(=O)c2ccccc2)C(C(=O)c2ccccc2)C(c2ccc(OC)cc2)C2C(=O)NC(=S)NC2=O)cc1 (centres undefined)
GI50 (A549 NSCLC): 8.96 µM
TGI (A549 NSCLC): 75.7 µM
GI50 (HL-60(TB) leukemia): 20.1 µM
TGI (HL-60(TB) leukemia): > 100 µM
GI50 (HS 578T breast): 10.5 µM
TGI (HS 578T breast): 47.9 µM
GI50 (MOLT-4 leukemia): 11.4 µM
TGI (MOLT-4 leukemia): > 100 µM
GI50 (NCI/ADR-RES ovarian): 10.7 µM
TGI (NCI/ADR-RES ovarian): 34.1 µM
GI50 (OVCAR-3 ovarian): 4.96 µM
TGI (OVCAR-3 ovarian): 24.8 µM
GI50 (RXF 393 renal): 18.2 µM
TGI (RXF 393 renal): > 100 µM
GI50 (SK-MEL-5 melanoma): 10.5 µM
TGI (SK-MEL-5 melanoma): 22.7 µM

c1ccc([As]=[As]c2ccccc2)cc1 (centres undefined)
GI50 (A549 NSCLC): 1.87 µM
TGI (A549 NSCLC): 3.9 µM
GI50 (HL-60(TB) leukemia): 1.19 µM
TGI (HL-60(TB) leukemia): 4.19 µM
GI50 (HS 578T breast): 1.55 µM
TGI (HS 578T breast): 10.5 µM
GI50 (MOLT-4 leukemia): 1.01 µM
TGI (MOLT-4 leukemia): 4.17 µM
GI50 (NCI/ADR-RES ovarian): 2.16 µM
TGI (NCI/ADR-RES ovarian): 6.32 µM
GI50 (OVCAR-3 ovarian): 0.676 µM
TGI (OVCAR-3 ovarian): 1.85 µM
GI50 (RXF 393 renal): 0.58 µM
TGI (RXF 393 renal): 2.04 µM
GI50 (SK-MEL-5 melanoma): 1.41 µM
TGI (SK-MEL-5 melanoma): 3.57 µM
